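Abbreviation: GI50, concentration required for 50% inhibition of growth. TGI marks complete inhibition of growth.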
How the values were obtained:
Test in all cases: NCI-60 cell line screen, 384-well format
SK-OV-3 ovarian = system: SK-OV-3 ovarian
UO-31 renal = system: UO-31 renal
SW-620 colon = system: SW-620 colon
A549 NSCLC = system: A549 NSCLC
HL-60(TB) leukemia = system: HL-60(TB) leukemia
HS 578T breast = system: HS 578T breast
OVCAR-8 ovarian = system: OVCAR-8 ovarian
SF-539 CNS = system: SF-539 CNS
HOP-92 NSCLC = system: HOP-92 NSCLC
SN12C renal = system: SN12C renal
TK-10 renal = system: TK-10 renal
M14 melanoma = system: M14 melanoma
KM12 colon = system: KM12 colon
SK-MEL-28 melanoma = system: SK-MEL-28 melanoma
MALME-3M melanoma = system: MALME-3M melanoma
HCT-15 colon = system: HCT-15 colon
SF-268 CNS = system: SF-268 CNS
NCI-H522 lung = system: NCI-H522 lung
K-562 leukemia = system: K-562 leukemia
NCI-H322M lung = system: NCI-H322M lung
UACC-62 melanoma = system: UACC-62 melanoma
SK-MEL-5 melanoma = system: SK-MEL-5 melanoma
OVCAR-5 ovarian = system: OVCAR-5 ovarian
SR leukemia = system: SR leukemia
NCI-H23 lung = system: NCI-H23 lung
SF-295 CNS = system: SF-295 CNS
MDA-MB-231 breast = system: MDA-MB-231 breast
NCI/ADR-RES ovarian = system: NCI/ADR-RES ovarian
SNB-75 CNS = system: SNB-75 CNS
T-47D breast = system: T-47D breast
CAKI-1 renal = system: CAKI-1 renal
LOX IMVI melanoma = system: LOX IMVI melanoma
HCC-2998 colon = system: HCC-2998 colon
OVCAR-3 ovarian = system: OVCAR-3 ovarian
A498 renal = system: A498 renal
NCI-H460 NSCLC = system: NCI-H460 NSCLC
RXF 393 renal = system: RXF 393 renal
CCRF-CEM leukemia = system: CCRF-CEM leukemia
ACHN renal = system: ACHN renal
DU-145 prostate = system: DU-145 prostate
OVCAR-4 ovarian = system: OVCAR-4 ovarian
MDA-MB-468 breast = system: MDA-MB-468 breast
IGROV1 ovarian = system: IGROV1 ovarian
EKVX NSCLC = system: EKVX NSCLC
MDA-MB-435 melanoma = system: MDA-MB-435 melanoma
COLO 205 colon = system: COLO 205 colon
SNB-19 CNS = system: SNB-19 CNS
HT29 colon = system: HT29 colon
NCI-H226 lung = system: NCI-H226 lung
HOP-62 NSCLC = system: HOP-62 NSCLC
786-0 renal = system: 786-0 renal
PC-3 prostate = system: PC-3 prostate
RPMI-8226 leukemia = system: RPMI-8226 leukemia
UACC-257 melanoma = system: UACC-257 melanoma
MCF7 breast = system: MCF7 breast
BT-549 breast = system: BT-549 breast
MOLT-4 leukemia = system: MOLT-4 leukemia

COc1cc2c(Oc3ccc4[nH]c(C)cc4c3F)ccnc2cc1OCC1(N)CC1
GI50 (SK-OV-3 ovarian): 539 nM
TGI (SK-OV-3 ovarian): 1920 nM
GI50 (UO-31 renal): 1300 nM
TGI (UO-31 renal): 2760 nM
GI50 (SW-620 colon): 541 nM
TGI (SW-620 colon): 1950 nM
GI50 (A549 NSCLC): 1080 nM
TGI (A549 NSCLC): 3150 nM
GI50 (HL-60(TB) leukemia): 240 nM
TGI (HL-60(TB) leukemia): 463 nM
GI50 (HS 578T breast): 294 nM
TGI (HS 578T breast): 1040 nM
GI50 (OVCAR-8 ovarian): 1510 nM
TGI (OVCAR-8 ovarian): 3270 nM
GI50 (SF-539 CNS): 270 nM
TGI (SF-539 CNS): 1140 nM
GI50 (HOP-92 NSCLC): 477 nM
TGI (HOP-92 NSCLC): 1900 nM
GI50 (SN12C renal): 1120 nM
TGI (SN12C renal): 2860 nM
GI50 (TK-10 renal): 1600 nM
TGI (TK-10 renal): 3320 nM
GI50 (M14 melanoma): 519 nM
TGI (M14 melanoma): 1660 nM
GI50 (KM12 colon): 474 nM
TGI (KM12 colon): 1740 nM
GI50 (SK-MEL-28 melanoma): 828 nM
TGI (SK-MEL-28 melanoma): 2080 nM
GI50 (MALME-3M melanoma): 375 nM
TGI (MALME-3M melanoma): 1460 nM
GI50 (HCT-15 colon): 493 nM
TGI (HCT-15 colon): 1760 nM
GI50 (SF-268 CNS): 683 nM
TGI (SF-268 CNS): 2070 nM
GI50 (NCI-H522 lung): 274 nM
TGI (NCI-H522 lung): 672 nM
GI50 (K-562 leukemia): 421 nM
TGI (K-562 leukemia): 1390 nM
GI50 (NCI-H322M lung): 1440 nM
TGI (NCI-H322M lung): 3420 nM
GI50 (UACC-62 melanoma): 396 nM
TGI (UACC-62 melanoma): 1410 nM
GI50 (SK-MEL-5 melanoma): 416 nM
TGI (SK-MEL-5 melanoma): 1320 nM
GI50 (OVCAR-5 ovarian): 1920 nM
TGI (OVCAR-5 ovarian): 3870 nM
GI50 (SR leukemia): 182 nM
TGI (SR leukemia): 350 nM
GI50 (NCI-H23 lung): 1030 nM
TGI (NCI-H23 lung): 2520 nM
GI50 (SF-295 CNS): 346 nM
TGI (SF-295 CNS): 1250 nM
GI50 (MDA-MB-231 breast): 1170 nM
TGI (MDA-MB-231 breast): 3540 nM
GI50 (NCI/ADR-RES ovarian): 936 nM
TGI (NCI/ADR-RES ovarian): 2210 nM
GI50 (SNB-75 CNS): 314 nM
TGI (SNB-75 CNS): 1070 nM
GI50 (T-47D breast): 1600 nM
TGI (T-47D breast): 5360 nM
GI50 (CAKI-1 renal): 881 nM
TGI (CAKI-1 renal): 2310 nM
GI50 (LOX IMVI melanoma): 705 nM
TGI (LOX IMVI melanoma): 1990 nM
GI50 (HCC-2998 colon): 1370 nM
TGI (HCC-2998 colon): 2850 nM
GI50 (OVCAR-3 ovarian): 278 nM
TGI (OVCAR-3 ovarian): 797 nM
GI50 (A498 renal): 400 nM
TGI (A498 renal): 1690 nM
GI50 (NCI-H460 NSCLC): 714 nM
TGI (NCI-H460 NSCLC): 2030 nM
GI50 (RXF 393 renal): 648 nM
TGI (RXF 393 renal): 2090 nM
GI50 (CCRF-CEM leukemia): 722 nM
TGI (CCRF-CEM leukemia): 1880 nM
GI50 (ACHN renal): 1160 nM
TGI (ACHN renal): 3440 nM
GI50 (DU-145 prostate): 2160 nM
TGI (DU-145 prostate): 7360 nM
GI50 (OVCAR-4 ovarian): 543 nM
TGI (OVCAR-4 ovarian): 3180 nM
GI50 (MDA-MB-468 breast): 253 nM
TGI (MDA-MB-468 breast): 567 nM
GI50 (IGROV1 ovarian): 1200 nM
TGI (IGROV1 ovarian): 4350 nM
GI50 (EKVX NSCLC): 867 nM
TGI (EKVX NSCLC): 2850 nM
GI50 (MDA-MB-435 melanoma): 228 nM
TGI (MDA-MB-435 melanoma): 497 nM
GI50 (COLO 205 colon): 1300 nM
TGI (COLO 205 colon): 3010 nM
GI50 (SNB-19 CNS): 821 nM
TGI (SNB-19 CNS): 2970 nM
GI50 (HT29 colon): 364 nM
TGI (HT29 colon): 1450 nM
GI50 (NCI-H226 lung): 1110 nM
TGI (NCI-H226 lung): 3020 nM
GI50 (HOP-62 NSCLC): 664 nM
TGI (HOP-62 NSCLC): 2060 nM
GI50 ([…]-0 renal): 465 nM
TGI (786-0 renal): 1630 nM
GI50 (PC-3 prostate): 809 nM
TGI (PC-3 prostate): 2290 nM
GI50 (RPMI-8226 leukemia): 753 nM
TGI (RPMI-8226 leukemia): 1990 nM
GI50 (UACC-257 melanoma): 427 nM
TGI (UACC-257 melanoma): 1290 nM
GI50 (MCF7 breast): 359 nM
TGI (MCF7 breast): 7730 nM
GI50 (BT-549 breast): 383 nM
TGI (BT-549 breast): 1190 nM
GI50 (MOLT-4 leukemia): 223 nM
TGI (MOLT-4 leukemia): 419 nM
